Literature values, collected in US8697115B2, “Method of improving antioxidant status of an infant” (Abbott Laboratories, priority 2002, dated 2014).

Key:
[1] = Food Chemicals Codex effective Jul. 1, 1996
[2] = adults
[3] = α-tocopherol equivalents; from Vitamin E in Health and Disease, 1993
[4] = capsule with both forms for 5 days prior to giving birth

SMILES | Activity (IU/mg) [1] [IU/mg] | Activity as α-TE (mg/mg compound) [3] [mg/mg compound] | also measured
Cc1c(C)c2c(c(C)c1O)CCC(C)(CCCC(C)CCCC(C)CCCC(C)C)O2 (racemic) [d,l-α-tocopherol, 2DL,4′DL,8′DL-α-tocopherol] | 1.1 |  | 
Cc1c(C)c2c(c(C)c1O)CC[C@@](C)(CCC[C@H](C)CCC[C@H](C)CCCC(C)C)O2 [RRR-α-tocopherol, 2R,4′R,8′R-α-tocopherol] | 1.49 | 1.0 | enrichment in VLDL secreted by the liver over all-rac-α-tocopherol [2]: 4 fold; amount in placental cord blood relative to synthetic vitamin E [4]: ~3.5 times; concentration in the mother's own blood at delivery relative to synthetic vitamin E ([4]; in words): nearly twice
CC(C)=CCC/C(C)=C/CC/C(C)=C/CC[C@]1(C)CCc2c(C)c(O)c(C)c(C)c2O1 [RRR-α-tocotrienol] |  | 0.3 | 
Cc1cc(O)c(C)c2c1O[C@](C)(CCC[C@H](C)CCC[C@H](C)CCCC(C)C)CC2 [RRR-β-tocopherol] |  | 0.5 | 
CC(C)=CCC/C(C)=C/CC/C(C)=C/CC[C@]1(C)CCc2c(C)c(O)cc(C)c2O1 [RRR-β-tocotrienol] |  | 0.05 | 
Cc1c(O)cc2c(c1C)O[C@](C)(CCC[C@H](C)CCC[C@H](C)CCCC(C)C)CC2 [RRR-γ-tocopherol] |  | 0.1 | 
Cc1cc(O)cc2c1O[C@](C)(CCC[C@H](C)CCC[C@H](C)CCCC(C)C)CC2 [RRR-δ-tocopherol] |  | 0.03 | 
CC(=O)Oc1c(C)c(C)c2c(c1C)CCC(C)(CCCC(C)CCCC(C)CCCC(C)C)O2 (stereo not drawn) [d,l-α-tocopherol acetate] | 1.0 | 0.74 | 
Cc1c(C)c2c(c(C)c1OC(=O)CCC(=O)O)CCC(C)(CCCC(C)CCCC(C)CCCC(C)C)O2 (stereo not drawn) [d,l-α-tocopherol acid succinate] | 0.89 |  | 
CC(=O)Oc1c(C)c(C)c2c(c1C)CC[C@@](C)(CCC[C@H](C)CCC[C@H](C)CCCC(C)C)O2 [d-α-tocopherol acetate] | 1.36 |  | preferential utilization compared to all-rac-α-tocopheryl acetate ([2]; in words): about twice
Cc1c(C)c2c(c(C)c1OC(=O)CCC(=O)O)CC[C@@](C)(CCC[C@H](C)CCC[C@H](C)CCCC(C)C)O2 [d-α-tocopherol acid succinate] | 1.21 |  | 
